Experimental findings from PMC9033217, “Synthesis, characterization and biological evaluation of dipicolylamine sulfonamide derivatized platinum complexes as potential anticancer agents” (RSC Advances, 2021) are described below.

Data set [1] concerns normal human breast cells (MCF-10A). The experiment in a line: Antiproliferative activity / cytotoxicity by sulforhodamine B assay in MCF-10A cells. The data set is classed as cell-based. The conditions noted are these: MCF-10A normal human breast cells, 24 hours exposure, triplicate. As for the experimental part:
(§1) The ligands and corresponding metal complexes were investigated for their cytotoxicity against MCF-7 (breast cancer) cells and MCF-10A (normal human breast) cells. Cells were cultured in 96-well culture plates and exposed to 12.5 μg ml^−1, 25 μg ml^−1, 50 μg ml^−1 and 100 μg ml^−1 concentrations of ligands and complexes for 24 hours and cytotoxicity was assessed by sulforhodamine B assay. All exposures were carried out in triplicate. Briefly, the cell supernatant was completely removed and washed with phosphate buffer solution. Trichloroacetic acid (50%, […]) was added on top of fetal bovine serum-free fresh medium (200 μl) to make final concentration of 10% trichloroacetic acid and was incubated at 4 °C for one hour prior to the SRB assay. The plates were then washed with five washing cycles with water and dried completely. An aliquot of 100 μl of 0.4% sulforhodamine B dissolved in 1% trichloroacetic acid, was added to each well, and was allowed to stain for 15 minutes. The plates were again washed with five washing cycles to remove unbound dye using 1% (vol/vol) acetic acid after removing the stain. The protein bound dye was solubilized with trisbase (10 mM, pH 7.5, 200 μl), after air drying. The plates were then shaken for 60 minutes to homogenize the dye solution. The absorbance was then measured at 540 nm using Synergy HTBioTek microplate reader. The percentage viability was calculated by the equation given below.1 [drawing 1]
(§2) Three ligands and three novel complexes were assayed for their antiproliferative activity in human breast cancer cells (MCF-7) and normal human breast cells (MCF-10A). In this study, the cell lines were exposed to synthesized compounds in a concentration gradient up to […] and the half maximal inhibitory concentration (IC50) was determined for each compound. Cytotoxicity was measured with sulforhodamine B assay.
On the technique in general: Sulforhodamine B stains cellular protein and so reports cell mass.

Data set [2] concerns human breast cancer cells (MCF-7). The data set is described as follows: Antiproliferative activity / cytotoxicity by sulforhodamine B assay in MCF-7 cells. Format: cell-based. The note with it: for IC50: MCF7, MCF-7 human breast cancer cells, 24 hours exposure, sulforhodamine B assay, triplicate. The procedure: as §1, §2

SMILES strings stand for the structures.

The term IC50 denotes the concentration at which inhibition is half-maximal. Turning to `O=S(=O)(c1cccc2ccccc12)N(Cc1ccccn1)Cc1ccccn1` [N(SO2(1-nap))dpa], the IC50 in data set [1] turned out to be 1583 ± 0.04 µM; in data set [2] it was 92 ± 0.06 µM. Besides, the “shape of cytotoxicity curve” value in data set [2] (Fig. S3, IC50 graphs against MCF-7) was “biphasic cytotoxicity curve”.
`O=S(=O)(c1ccc2ccccc2c1)N(Cc1ccccn1)Cc1ccccn1` [N(SO2(2-nap))dpa]: the concentration for half-maximal inhibition (IC50) in data set [1] stood at 581 ± 0.04 µM; in data set [2], 18.1 ± 0.1 µM.
Take `O=S(=O)(N1CCCCC1)N(Cc1ccccn1)Cc1ccccn1` [N(SO2pip)dpa]: the figures for the half-maximal inhibitory concentration (IC50) in data set [1] and in data set [2] were 948.5 ± 0.04 µM and 21.2 ± 0.1 µM, respectively.
